Measurements published in patent publication US20210145983A1, “METHODS AND COMPOSITIONS OF INHIBITING CSF1R FOR TREATING ALLERGIC INFLAMMATION” (THE BOARD OF TRUSTEES OF THE UNIVERSITY OF ILLINOIS, priority 2018, published 2021).

Key:
[1] = system: acute DRA induced murine model of asthma; test: acute DRA induced murine model of asthma; format: in vivo, mouse; conditions: 10 mg/kg intraperitoneally on day 10, 12 and 14
Source text: B. Experimental Design. DRA triple allergens were delivered via intranasal route as depicted.

IgE = conditions: cited from earlier work
Sequence of IgE (P01854 1-426 limits assumed): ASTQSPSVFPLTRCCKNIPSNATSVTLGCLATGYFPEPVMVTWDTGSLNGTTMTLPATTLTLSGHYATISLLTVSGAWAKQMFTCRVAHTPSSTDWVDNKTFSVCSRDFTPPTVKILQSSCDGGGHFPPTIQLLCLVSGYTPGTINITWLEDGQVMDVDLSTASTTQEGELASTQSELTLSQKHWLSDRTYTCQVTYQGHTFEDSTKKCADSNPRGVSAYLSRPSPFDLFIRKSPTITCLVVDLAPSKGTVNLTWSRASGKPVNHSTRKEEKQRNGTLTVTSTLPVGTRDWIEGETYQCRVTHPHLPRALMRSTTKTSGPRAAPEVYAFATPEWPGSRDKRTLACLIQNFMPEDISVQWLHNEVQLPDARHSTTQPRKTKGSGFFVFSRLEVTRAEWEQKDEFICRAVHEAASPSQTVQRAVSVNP

| Compound | Th2 cytokine increase in BAL fluids [1] | allergic lung inflammation (lung pathology) [1] | eosinophil recruitment to BAL fluid [1] | serum IgE rise [1] | control of asthma exacerbations (IgE; inner city children already sensitized to cockroach, Busse W W, et al. 2011) | control of seasonal exacerbations (IgE; pre-seasonal treatment, poorly controlled asthmatics, Teach S J, et al. 2015) |
| --- | --- | --- | --- | --- | --- | --- |
| FC(F)(F)c1ccc(CNc2ccc(Cc3c[nH]c4ncc(Cl)cc34)cn2)cn1 [PLX3397, 5-((5-chloro-1H-pyrrolo[2,3-b]pyridin-3-yl)methyl)-N-((6-(trifluoromethyl)pyridin-3-yl)methyl)pyridin-2-amine] | attenuated | markedly reduced | blocked | attenuated | – | – |
| omalizumab: a humanized monoclonal anti-IgE antibody | – | – | – | – | significant benefit | effective |
